Assay results taken from patent US20130053336A1, “TREATMENT OF CHLAMYDIACEAE INFECTIONS BY MEANS OF BETA-LACTAMS” (priority 2010, published 2013).
Values after ≈ are worked out from the molar mass of the structure shown. “Also recorded” adds a separate entry of the source. Read-outs that look alike come from different tables or passages of the source.

Assays:
Format in all cases: cell-based
[1] = tested on: Chlamydia trachomatis serovar L2; assay: Infectivity of progeny bacteria (IFU titration, reactivation test)
Procedure: HeLa cells were infected with the Chlamydia trachomatis L2 serovar at 1 inclusion forming unit (IFU). At 3 hpi, 3 equal batches were distinguished and penicillin G was added at a concentration of 100 U/ml to the “penicillin G” batch (black bar) and “reversion” (gray bar) but not in the control batch (white bar). At 24 hpi, penicillin G was removed from the culture medium in the reversion group. At 48 hpi or 100 hpi, the supernatants and the cells were combined and stored at -80° C. Fresh cultures of HeLa cells were then incubated for 1 hour with cell extracts (left) or supernatants (right), incubated with cycloheximide and fixed 24 hours later. The nuclei and the inclusions were stained and counted to calculate the number of IFU/ml. […] It is also a first indication of the lethality of Chlamydia. HeLa cells were infected with Chlamydia trachomatis serovar L2 at 1 IFU. At 3 hpi, penicillin G was added at a concentration of 1, 10 or 100 U/ml in the penicillin G (-) and reversion (+) samples. At 24 hpi, penicillin G was removed from the culture medium in the reversion group (+). At 48 hpi or 100 hpi, the supernatants and the cells were collected and stored at -80° C. HeLa cells grown on slides were incubated for 1 hour with cell extracts (left) or with supernatants (right), treated with cycloheximide and fixed 24 hours later. The nuclei and inclusions were stained and counted to determine the number of IFU/ml. […] The infections were carried out at 37° C. for 90 minutes with centrifugation, followed by a washing of extracellular bacteria. At 3 hpi, after the washings, the culture medium was replaced with medium containing either 25 μg/ml gentamicin or 1-100 IU/ml penicillin G. At regular intervals after treatment with penicillin G, the cultures were either fixed in 4% neutral buffered PFA for 30 minutes to be prepared for confocal microscopy, or collected to determine the infectivity of the progeny bacteria, according to the previously described method (Verbeke, P. et al. PLoS Pathog 2:e45, 2006). HeLa cells cultured in monolayers on slides were infected with Chlamydia trachomatis serovar L2 and treated with penicillin G, as described above. Twenty hours after infection, the culture was washed and the medium replaced with medium free of penicillin G. Between 48 and 100 hpi, the cells and the culture medium were collected at various intervals and a titration test was performed according to the method of the prior art (Scidmore, M. A. Curr Protoc Microbiol Chapter 11: Unit 11A 11, 2005). To determine whether treatment with penicillin G could affect bacterial persistence, HeLa cells infected with L2 and treated with IFN-γ and penicillin G (500 IU/ml) from 48 hpi (i.e. 24 hours after treatment with IFN-γ) to 72 hpi (i.e. 48 hours after treatment with IFN-γ). The slides were then fixed and observed using an epifluorescence microscope (Leica D M, Leica, Mannheim, Germany) equipped with two sets of detection filters (Hoechst 360/40 nmBP-425 nmLP; FITC 480/40 nmBP-527/30 nmBP) and connected to a CCD camera CCC.

[2] = tested on: HeLa cells infected with Chlamydia trachomatis; assay: Sensitivity to apoptosis of infected cells (staurosporine)
Procedure: A: HeLa cells were infected with Chlamydia trachomatis and treated or not treated with penicillin G at 3 hpi. At 21 hpi, staurosporine was added to the culture medium. The cells were fixed at 48 hpi and stained with an antibody against Chlamydia sp. (green in the original figure) and Hoechst (blue in the original figure).
B: Normal or apoptotic nuclei associated with inclusions were counted and the percentage of infected cells in apoptosis was calculated.
HeLa cells were infected in the absence (white bar) or presence of penicillin G (100 U/ml) added at […] (light gray bar) or at 29 hpi (dark gray bar). Staurosporine was added at 31 hpi. The cells were fixed and observed as described below. The apoptotic or normal nuclei associated with inclusions were counted, and the percentages of apoptotic infected cells were determined. In 2 hours, treatment with penicillin G induces a loss of control by Chlamydia trachomatis over host cell apoptosis.
The effect of treatment with penicillin G on the anti-apoptotic activity of Chlamydia was determined. HeLa cells cultured in monolayers on slides were infected with serovar L2 and treated with penicillin G at 3 hpi or 29 hpi. At 25 hpi or 32 hpi, respectively, the cells were incubated with 1 μM staurosporine, fixed at 40 hpi or 48 hpi and prepared for epifluorescence microscopy. The percentages of infected cells containing apoptotic nuclei were calculated.

[3] = tested on: Chlamydia trachomatis L2 serovar 16S rRNA; assay: 16S rRNA expression by RT-PCR; conditions: 100 hpi
Description: HeLa cells were infected with the Chlamydia trachomatis L2 serovar and treated or not treated with penicillin G at 3 hpi. At 100 hpi, the cells were collected and the RNA extracted carefully to avoid DNA contamination. Half of the isolated RNA was used for reverse transcription. The RNA and cDNA were amplified by PCR with primers for 16S (bacterial) and 18S (eukaryotic) rRNA in order to study bacterial activity and to verify cDNA quality and quantity. PCR of the RNA is used to verify the absence of DNA contamination. It also indicates the absence of contaminant in the PCR. […] Roughly 1×10^5 HeLa cells were infected and exposed or not exposed to penicillin G, as described above. At 100 hpi, total RNA were isolated using the RNeasy Plus Mini Kit (Qiagen, Hilden, Germany). The samples were treated with DNase I for 1 hour at 37° C. The enzyme was then denatured at 70° C. for 10 min. The RNA were reverse-transcribed into cDNA using random hexamer primers and AffinityScript Multiple Temperature Reverse Transcriptase (Agilent, Santa Clara, Calif., USA) and by following the manufacturer's instructions for RT-PCR. cDNA and RNA were amplified by PCR with Tag Polymerase (Invitrogen, Carlsbad, Calif., USA) in order to verify the absence of DNA contamination. The primers used to amplify 16S rRNA are: A semi-quantitative analysis of the PCR products was carried out by agarose gel electrophoresis and UV detection.

[4] = tested on: Chlamydia trachomatis serovar L2; assay: Minimum bactericidal concentration (titration of infectious ability of bacteria from treated infected cells)
Procedure: It was first sought to verify whether other molecules of the β-lactam family could induce in vitro the same abnormal and noninfectious forms of Chlamydia trachomatis as that produced in the presence of penicillin G. Titration experiments were performed on the infectious ability of bacteria from infected cells treated with different β-lactams. Cytotoxicity and minimum bactericidal concentration (MBC) were determined for each of these molecules. It was also verified whether all of these β-lactams have bactericidal action on persistent forms of Chlamydia trachomatis produced in vitro under the effect of IFN-γ.

[5] = tested on: Chlamydia trachomatis inclusions; assay: Fusion of lysosomes with inclusions (cathepsin D, LysoTracker, confocal microscopy)

CC1(C)S[C@@H]2[C@H](NC(=O)Cc3ccccc3)C(=O)N2[C@H]1C(=O)O [Penicillin G, benzylpenicillin]
infectivity at low penicillin G concentrations ([1]; 1, 10 or 100 U/ml, permanent or transitory treatment): same irreversible loss of infectivity; also recorded: no reinfection was obtained
infectivity after removing penicillin G at 24 hpi (reversion) ([1]; 100 U/ml from 3 hpi, removed at 24 hpi): no improvement in infectivity
infectious ability (IFU/ml) with or without reversion phase ([1]; 100 U/ml, 48 hpi or 100 hpi, cell extracts and supernatants, FIG. 2): no infectious ability could be shown
infectivity of bacteria collected at 48 hpi compared with gentamicin-treated cells ([1]; continuous 100 IU/ml, 48 hpi): several hundred times less infectious
infectivity of bacteria released at 100 hpi ([1]; continuous 100 IU/ml, 100 hpi): completely noninfectious
speed of loss of control over host cell apoptosis ([2]; penicillin G 100 U/ml at 29 hpi, staurosporine at 31 hpi): ≤ 2 h
apoptotic cells ([2]; penicillin G at 2 hpi or 29 hpi, staurosporine at 31 hpi, observed 8 hours later): Roughly 38%
infected cells showing signs of apoptosis ([2]; penicillin G, 4 μM staurosporine at 21 hpi, read at 48 hpi): 70.39%
16S rRNA expression in infected cells [3]: do not produce bacterial RNA; also recorded: express 18S RNA, but not 16S
MBC ([4]; minimum bactericidal concentration, read-out: MBC): 0.3 µM (≈ 0.1 µg/mL)
MBC ([4]; second line of the MBC cell, read-out: MBC, bound in parentheses below the value): > 0.1 µM
localization of cathepsin D in inclusions ([5]; HeLa, 24 hpi): the majority of the abnormal bacterial forms contained cathepsin D
cathepsin D in abnormal inclusions of other cell/serovar pairs ([5]; RL95-2 cells/serovar L2 or HeLa cells/serovar D): also contain cathepsin D
LysoTracker-stained compartments and inclusions ([5]; confocal videomicroscopy): compartments stained with LysoTracker probes enter abnormal inclusions
